Test results as given in patent US6562873B2, “Compositions containing therapeutically active components having enhanced solubility” (Allergan, Inc., priority 2000, dated 2003).
Like-named read-outs stand apart in the source and are kept apart here. Marks after values point to notes of the source that are not given here.

Assays:
[1] = for Solubility: 23° C., 2 days stirring, theoretical concentration based on sample weight, all dissolved
Protocol: Table 1. It will be understood that concentrations of adrenergic agonists other than 0.5% may be used, so long as they have therapeutic activity. Likewise, the temperature may be varied, for example, solubility curves may be performed at 37° C. (98.6° F.). The formulation vehicle was prepared by first dissolving polyvinyl alcohol (PVA) in water. The PVA was added to approximately ⅓ of the required total amount of purified water with constant stirring. The slurry was stirred for 20-30 minutes and then heated to 80-95° C. with constant stirring. The mixture was removed from the heat source within 1 hour after having reached the temperature of 80-90° C. and stirred for an additional 10 minutes to ensure homogeneity (Part I). The other ingredients of the Ophthalmic Solution, except for Brimonidine tartrate, were dissolved in a separate container with an additional ⅓ of the required total amount of purified water (Part II). The PVA mixture (Part I) was then quantitatively transferred to Part II using several rinse volumes of purified water. The solution was adjusted to final volume with purified water without pH adjustment.
Brimonidine tartrate was weighed and transferred to a 10 mL test tube containing 5 mL of the formulation vehicle described above. The pH of each sample was then adjusted to a desired value using dilute sodium hydroxide and/or dilute hydrochloric acid. The samples were placed in a rack on a stir plate and stirred at high speed to achieve uniform mixing for 2 days; a partition was placed between the rack and the stir plate to prevent any heat diffusion from the stir plate to the samples.
At the end of two days of stirring, the pH value of each sample was measured, and then approximately 1 mL of each sample was placed in a micro centrifuge tube (polypropylene) and centrifuged at 4,000 rpm for 10 minutes. The supernatant was filtered through a 1 μm filter unit (Whatman, 13 mm, PTFE). The first 3-4 drops of the filtrate were discarded; the rest of the filtrate was received and diluted quantitatively with HPLC mobile phase. […] A control of […] Brimonidine tartrate was prepared in the formulation vehicle at pH 6.3-6.5 and assayed before (untreated) and after (treated) centrifugation and filtration. This was done to evaluate the potential loss of Brimonidine tartrate in these two steps of the sample preparation. To ensure reproducibility, the study was repeated on consecutive days.

[2] = for Solubility of Brimonidine tartrate (%): 15 days; for soluble Brimonidine tartrate: FIG. 1
Protocol: The pH-solubility profiles of Brimonidine tartrate in compositions (solutions) containing SECs and oxy-chloro components were determined. Particularly, the effects of sodium carboxymethylcellulose (CMC), an SEC, on the solubility of Brimonidine tartrate at various pH conditions were determined. The various concentrations of CMC tested with Brimonidine tartrate were 0%, 0.056%, 0.17%, 0.5%, 1.5% (w/v), Table III.
The samples tested also contained isotonic components, buffer components, and stabilized chlorine dioxide (Purite™), Table III. Sodium carboxymethyl-cellulose, sodium chloride, potassium chloride, calcium chloride dihydrate, and magnesium chloride hexahydrate were USP grade. Boric acid and sodium borate decahydrate were NF grade.
Each sample (1 through 5) was subjected to a range of pH's from about 7 to about 10. The vials containing the sample solutions were placed on a laboratory rotator and left for equilibration for fifteen days at room temperature (^˜21° C.). The sample solutions were filtered using a 25 mm diameter polysulfone cellulose acetate syringe type filter with 0.45 μm pore size. The filtered solutions were assayed for Brimonidine.
Conventional HPLC and detection techniques were used to detect and determine the concentrations of soluble Brimonidine tartrate. […] The solubility is plotted against pH for each CMC concentration. The experimental data points were fitted to a modified Henderson-Hasselbalch equation using a nonlinear least squares routine (Deltagraph version 4.0 DeltaPoint, Inc.), FIG. 1.

With “5-bromo-6-(2-imidozolin-2-ylamino) quinoxaline [Brimonidine tartrate]” as the substance, how does the “Concentration of Brimonidine tartrate in control after centrifugation and filtration step” value ([1]; Control (treated), formulation vehicle at pH 6.3-6.5, Study 1) read?
The value was 0.484^d % w/v.

What about the “Concentration of Brimonidine tartrate in control before centrifugation and filtration step” value ([1]; Control (untreated), formulation vehicle at pH 6.3-6.5, Study 1) of the same substance?
The value was 0.486^c % w/v.

And the Solubility ([1]; Study 1, sample 1, pH 5.55, Ophthalmic Solution vehicle)?
Its Solubility is “≦164.4^b % w/v”.

What about the Solubility ([1]; Study 2, sample 1, pH 5.50, Ophthalmic Solution vehicle) of the same substance?
The Solubility was “≦200.6^b % w/v”.

And the “Solubility of Brimonidine tartrate (%)” value ([2]; 0% CMC, pH 6.68, room temperature (~21° C.))?
Its value is 1.4256%.

What about the “Solubility of Brimonidine tartrate (%)” value ([2]; 0% CMC, pH 7.11, room temperature (~21° C.)) of the same substance?
Its value is 0.2064%.

And the “Solubility of Brimonidine tartrate (%)” value ([2]; 0% CMC, pH 7.68, room temperature (~21° C.))?
The value was 0.0786%.

And the “Solubility of Brimonidine tartrate (%)” value ([2]; 0% CMC, pH 8.50, room temperature (~21° C.))?
The value was 0.0286%.

What about the “Solubility of Brimonidine tartrate (%)” value ([2]; 0% CMC, pH 10.09, room temperature (~21° C.)) of the same substance?
The value was 0.0218%.

And the “Solubility of Brimonidine tartrate (%)” value ([2]; 0.056% CMC, pH 6.67, room temperature (~21° C.))?
Its value is 0.9302%.

What about the “Solubility of Brimonidine tartrate (%)” value ([2]; 0.056% CMC, pH 7.11, room temperature (~21° C.)) of the same substance?
Its value is 0.2828%.

What about the “Solubility of Brimonidine tartrate (%)” value ([2]; 0.056% CMC, pH 7.77, room temperature (~21° C.)) of the same substance?
Its value is 0.0721%.

What about the “Solubility of Brimonidine tartrate (%)” value ([2]; 0.056% CMC, pH 9.93, room temperature (~21° C.)) of the same substance?
The value was 0.0234%.

And the “Solubility of Brimonidine tartrate (%)” value ([2]; 0.17% CMC, pH 6.68, room temperature (~21° C.))?
Its value is 1.4200%.

What about the “Solubility of Brimonidine tartrate (%)” value ([2]; 0.17% CMC, pH 6.93, room temperature (~21° C.)) of the same substance?
The value was 0.7302%.

And the “Solubility of Brimonidine tartrate (%)” value ([2]; 0.17% CMC, pH 7.81, room temperature (~21° C.))?
Its value is 0.0735%.

What about the “Solubility of Brimonidine tartrate (%)” value ([2]; 0.17% CMC, pH 8.55, room temperature (~21° C.)) of the same substance?
The value was 0.0328%.

And the “Solubility of Brimonidine tartrate (%)” value ([2]; 0.17% CMC, pH 10.05, room temperature (~21° C.))?
Its value is 0.0241%.

And the “Solubility of Brimonidine tartrate (%)” value ([2]; 0.5% CMC, pH 6.67, room temperature (~21° C.))?
The value was 1.4464%.

And the “Solubility of Brimonidine tartrate (%)” value ([2]; 0.5% CMC, pH 7.10, room temperature (~21° C.))?
Its value is 0.3693%.

What about the “Solubility of Brimonidine tartrate (%)” value ([2]; 0.5% CMC, pH 7.56, room temperature (~21° C.)) of the same substance?
The value was 0.1451%.

And the “Solubility of Brimonidine tartrate (%)” value ([2]; 0.5% CMC, pH 8.46, room temperature (~21° C.))?
Its value is 0.0313%.

And the “Solubility of Brimonidine tartrate (%)” value ([2]; 0.5% CMC, pH 9.94, room temperature (~21° C.))?
Its value is 0.0250%.

What about the “Solubility of Brimonidine tartrate (%)” value ([2]; 1.5% CMC, pH 7.35, room temperature (~21° C.)) of the same substance?
Its value is 0.1904%.

What about the “Solubility of Brimonidine tartrate (%)” value ([2]; 1.5% CMC, pH 8.10, room temperature (~21° C.)) of the same substance?
The value was 0.0498%.

What about the “Solubility of Brimonidine tartrate (%)” value ([2]; 1.5% CMC, pH 8.67, room temperature (~21° C.)) of the same substance?
The value was 0.0311%.

And the “Solubility of Brimonidine tartrate (%)” value ([2]; 1.5% CMC, pH 10.11, room temperature (~21° C.))?
The value was 0.0222%.

And the “effect of CMC concentration on solubility” value ([2]; FIG. 1, 0-1.5% CMC)?
Its value is “tends to increase with increasing CMC concentrations”.

And the “soluble Brimonidine tartrate” value ([2]; pH 7.5, 0% CMC)?
The value was 1000 ppm.

And the “soluble Brimonidine tartrate” value ([2]; pH 7.5, 0.056% CMC)?
Its value is 1300 ppm.

What about the “soluble Brimonidine tartrate” value ([2]; pH 7.5, 0.17% CMC) of the same substance?
The value was 1300 ppm.

And the “soluble Brimonidine tartrate” value ([2]; pH 7.5, 0.5% CMC)?
The value was 1600 ppm.

What about the “soluble Brimonidine tartrate” value ([2]; pH 7.5, 1.5% CMC) of the same substance?
The value was “about 1400 ppm”.
